From patent US11045485B2, “Glycomimetic inhibitors of PA-IL and PA-IIL lectins” (GlycoMimetics, Inc., priority 2016, dated 2021)
Values joined by “and” are separate entries in the source; they are usually repeats but may differ in a detail not shown here. Identical values can stand only once.

How the values were obtained:
[1] = system: Pseudomonas aeruginosa PAO1 strain; test: Acute P. aeruginosa-induced infection in mouse, association with tobramycin; assay type: in vivo, male C57BL6/J mice
Method: (§1) Pseudomonas aeruginosa PAO1 strain is a sequenced, well-characterized strain used as reference strain. Bacteria were grown overnight at 37° C. in Lysogeny Broth Lennox (LB) (BD Europe, Le pont de Claix, France) under orbital shaking (300 rpm) from frozen stock. A secondary culture was performed during 2 hours and before harvesting the bacteria by centrifugation (2000 g, 5 min), and two washings with sterile phosphate-buffered saline (PBS). Turbidity was then approximated by measurement of optical density at A600 (Ultrospec 10 Cell Density Meter, General Electric, Fairfield, Conn.) and verified by serial dilution and plating on LB agar Plates.
(§2) Vehicle was phosphate buffered saline, and test solutions are Glycomimetic Compound (I) 40 mM in PBS, and Compound A 40 mM in PBS. Test articles were provided by GlycoMimetics and stored at −20° C. Tobramycin (1 g) was provided by Laboratoire EREMPHARMA (25 rue Greffulhe—92300 Levallois) and stored at (+4° C.).
(§3) Male C57BL6/J mice (8 weeks old) purchased from Janvier Labs (Route du Genest, 53940 Le Genest-Saint-Isle) were housed a pathogen-free unit of the Lille University Animal Care Facility and allowed food and water ad lib.
(§4) Mice were anesthetized briefly with inhaled sevoflurane (Sevorane™, Abbott, Queensborough, UK), allowing maintenance of spontaneous breathing after which 50 μL of the bacterial solution were administered intranasally representing a total of 1.10^6 CFU/mouse (except for tobramycin study conducted with lethal inoculate of […]). Control mice receive 50 μL of PBS. All mice were sacrificed at 24 h (except for survival studies, mice were monitored on weight and clinical score 96 h post bacterial infection). Glycomimetic Compound (I) or Compound A were administered IN with the inoculum or post-infection (see FIG. 8 and FIG. 12). In appropriate groups, mice were treated 24 h after infection with 12 mg/kg tobramycin administered intraperitoneally.
(§5) For each group, treatment effect was measured with the disease score and daily mortality rate post challenge. The evolution of the disease score assessing the clinical appearance of the animals was evaluated on 4 items scored from 0 to 10 summarized in Table 1 (body temperature, appearance of the bristle, behavior and weight loss; 0: healthy mice, 10 moribund mice). All disease score assessments were performed by two experimenters throughout the study.
(§6) Statistical analysis was performed using Prism 5 software (Graph-Pad Software, San Diego Calif.). Values are expressed as mean±SEM. Comparison groups were analysed with the nonparametric Mann-Whitney test. Survival curves were analysed using Log-rank (Mantel-Cox) test. *p<0.05; ** p<0.01; *** p<0.001 Results are mean+/−Standard error.
Mice, 8 weeks old C57Bl/6J male, received intranasally 2.10^7 CFU of PAO1 and Glycomimetic Compound (I) or Compound A at different time points with or without an intraperitoneal injection of tobramycin 12 mg/kg (FIG. 12).

PA-IL = target: T1, PA-IL (Pseudomonas aeruginosa, UniProt Q05097); test: Assay for PA-IL antagonist activity (competition with α-galactose-PAA-biotin/streptavidin-HRP on coated plate); assay type: binding
T1 construct: purchased Sigma-Aldrich, St. Louis, Mo
T1 sequence (Q05097 whole entry): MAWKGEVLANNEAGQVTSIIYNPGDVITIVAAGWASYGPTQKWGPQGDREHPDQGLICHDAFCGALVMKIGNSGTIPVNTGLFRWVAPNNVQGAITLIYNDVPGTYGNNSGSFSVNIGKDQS
Method: (§7) Wells of a microtiter plate (plate 1) are coated with PA-IL (Sigma-Aldrich, St. Louis, Mo.) by incubation for 2 hrs at 37° C. The wells are then blocked for 2 hrs by the addition of 1% bovine serum albumin (BSA) diluted in TBS-Ca (50 mM TrisHCl, 150 mM NaCl, 2 mM CaCl2) pH 7.4) mixed 1:1 v/v with Stabilcoat (Surmodics, Eden Prairie, Minn.). In a second low-binding round-bottom microtiter plate (plate 2), test antagonists are serial diluted in 1% BSA in TBS-Ca/Stabilcoat (60 μl/well). Preformed conjugates of α-galactose-PAA-biotin (GlycoTech Corp, Gaithersburg, Md.) mixed with streptavidin-HRP (KPL Labs, Gaithersburg, Md.) are added to each well of plate 2 (60 μl/well of 2 μg/ml). Plate 1 is then washed with TBS-Ca and 100 μl/well are transferred from plate 2 to plate 1. After incubation at room temperature for 2 hrs, plate 1 is washed and 100 μl of TMB reagent (KPL Labs, Gaithersburg, Md.) is added to each well. After incubation for 5 minutes at room temperature, the reaction is stopped by adding 100 μl/well of 1M H3PO4 and the absorbance of light at 450 nm is determined by a microtiter plate reader. Absorbance is plotted as a function of antagonist concentration and the concentration at which 50% maximal absorbance (IC50) is obtained is determined from the plot.

[2] = Uninfected mice treated with compound (non-specific toxicity control); assay type: in vivo; conditions: 40 mM
[3] = system: Pseudomonas aeruginosa PAO1 strain; test: Acute P. aeruginosa-induced infection in mouse, monotherapy at different inoculation times; assay type: in vivo, male C57BL6/J mice
Method: as §1, §2, §3, §4, §5, §6
Mice, 8 weeks old C57Bl/6J male, received intranasally 1.10^7 CFU of PaO1 and Glycomimetic Compound (I) or Compound A at different time points, as described in FIG. 8.
We analyzed weight loss, clinical disease score and mortality. Fourteen independent cohorts of 5 mice each were tested. Each cohort included an equal representation of testing conditions. All stage 1 cohorts were tested over 4 days. At the conclusion of Stage 1, there was a total of 10 mice for each of the above 7 treatment groups.

PA-IIL = target: T2, PA-IIL (Pseudomonas aeruginosa, UniProt Q9HYN5); test: Assay for PA-IIL antagonist activity (competition with fucose-PAA-biotin/streptavidin-HRP on coated plate); assay type: binding
T2 construct: Dr. Wimmerova, Masaryk University, Brno, Czech Republic (academic supplier)
T2 sequence (Q9HYN5 entry or part of it): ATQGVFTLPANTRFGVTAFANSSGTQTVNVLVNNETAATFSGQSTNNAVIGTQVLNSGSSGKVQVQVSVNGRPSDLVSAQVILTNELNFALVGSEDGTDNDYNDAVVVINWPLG
Method: as §7, with “PA-IIL (Dr. Wimmerova, Masaryk University, Brno, Czech Republic)” for “PA-IL (Sigma-Aldrich, St. Louis, Mo.)”, “CaCl2” for “CaCl2)”, “fucose-PAA-biotin” for “α-galactose-PAA-biotin”

Pseudomonas aeruginosa = test: Acute lung injury model, treatment with tobramycin; assay type: in vivo, mice
Method: Mice were co-administered 2×10^7 CFU Pseudomonas aeruginosa with or without compound A or glycomimetic compound (I) in combination with 12 mg/kg tobramycin. The tobramycin was administered intraperitoneally 6 hours after bacterial challenge.

[4] = system: Pseudomonas aeruginosa strain PaO; test: Acute lung injury model, compound co-administered with bacteria; assay type: in vivo, male BalB/c mice
Method: Cohorts of male BalB/c mice (n=5/group) were infected intranasally with either a low (1-2×10^6 CFU) or a high (1-2×10^7 CFU) inoculum of Pseudomonas aeruginosa strain PaO, in combination with saline or multiple dose levels ([…], corresponding to 10, 25 and 50 mg/kg, respectively) of glycomimetic compound (I) or compound A. The bacteria were coadministered with glycomimetic compound (I) or compound A directly into the lungs of each mouse by intratracheal (i.t.) injection via the oropharynx using a 24-gauge feeding needle (total volume of 0.05 mL).
The animals were observed daily beginning 24 hours post infection and cumulative clinical (disease) scores were determined for each mouse (FIGS. 4 and 6). Parameters assessed were: (a) for appearance (smooth→bristly); (b) body temperature (normal→cold); (c) movement (moving→prostate); and (d) weight loss. Clinical scoring ranged from 0 (normal, uninfected appearance) to 10 (severely compromised).
Animals were observed daily for morbidity/mortality and day of death recorded. Kaplan-Meier analysis was used to estimate survival function from life-span data and statistical values derived from a log rank test.

[5] = 2.10^7 CFU PAO1, agent alone, H4 administration

| SMILES | survival [1, 5] | survival ([1]; 2.10^7 CFU PAO1, agent alone, at 6 h) | IC50 (PA-IL) | morbidity or mortality [2] | survival ([3]; 1.10^7 CFU PaO1, compound administered after 4 hours of infection) | survival ([3]; 1.10^7 CFU PaO1, compound administered after 6 hours of infection) | survival ([3]; 1.10^7 CFU PaO1, compound administered after one hour of infection) | survival ([3]; 1.10^7 CFU PaO1, compound administered with the bacteria) | effect on weight and score disease ([3]; monotherapy, FIGS. 10 and 11) | survival ([1]; 2.10^7 CFU PAO1, association with tobramycin 12 mg/kg i.p., H4 administration) | survival ([1]; 2.10^7 CFU PAO1, association with tobramycin 12 mg/kg i.p., at 6 h) | score disease ([1]; with tobramycin, at 4 hours) | IC50 (PA-IIL) | survival (Pseudomonas aeruginosa; 8 mM in combination with 12 mg/kg tobramycin) | survival (Pseudomonas aeruginosa; 20 mM in combination with 12 mg/kg tobramycin) | survival (Pseudomonas aeruginosa; 40 mM in combination with 12 mg/kg tobramycin) | survival benefit (Pseudomonas aeruginosa; 8, 20 and 40 mM co-administered with bacteria, plus 12 mg/kg tobramycin i.p. 6 hours after challenge) | survival ([4]; high inoculum, co-administered 20 mM, at 96 hr) | survival ([4]; high inoculum, co-administered 40 mM, at 96 hr) | survival ([4]; low inoculum 2×10^6 CFU, co-administered 40 mM compound, i.t.) |
| --- | --- | --- | --- | --- | --- | --- | --- | --- | --- | --- | --- | --- | --- | --- | --- | --- | --- | --- | --- | --- |
| NC[C@H]1O[C@H](O[C@H]2[C@H](O)[C@@H](O[C@H]3O[C@H](CO)[C@@H](O)[C@H](N)[C@H]3O)[C@H](N)C[C@@H]2N)[C@H](N)C[C@@H]1O [tobramycin, reference compound] | 70% | 10% |  |  |  |  |  |  |  |  |  |  |  |  |  |  |  |  |  |  |
| CC1CCC[C@@H](O[C@@H]2OC(CO)[C@H](O)C(O[C@H]3OC(CO)[C@H](O)C(O)C3O)C2O)C1OC1O[C@@H](C)C(O)C(O)[C@@H]1O (stereo partly drawn) [Glycomimetic Compound (I)] | 30% |  | 7.2 µM | no morbidity or mortality was observed | 40% | 25% and 20% | 54.5% | 90% | superior to Compound A | 90% | 50% | lower score | 0.44 µM | 40% | 100% | 100% | significantly increased | 60% | 100% | 100% |
